# Results reported in patent US8334267B2, “Mangiferin calcium salts, the method for its preparation and its use” (Hainan Deze Drug Research Co., Ltd., priority 2007, dated 2012).
# Legend:
# [1] = Water solubility test in distilled water; details: for dissolves in 30 minutes: prepared per example 8
# Method: 5 mg mangiferin powder which is weighed up accurately is put into 50 ml distilled water, the solution is shaked acutely 30 second every 5 minutes.
# 100 mg mangiferin calcium powder which is obtained by the method for preparation of example 8 and weighed up accurately is put into 50 ml distilled water, the solution is shaked acutely 30 second every 5 minutes.
# [2] = Pharmacokinetics of mangiferin and mangiferin calcium after oral administration; type: in vivo, rats; details: rats, oral 100 mg/kg
# Method: 1, The Confect of Drug Solution
# Mangiferin is suspended in Carboxymethyl cellulose sodium solution which concentration is one percent; the mangiferin concentration is 10 mg/mL, which is sample A.
# All rats were fasted for 16 hours, free drinking water. The rats are oral administrated separately sample A and sample B, which dose is 100 mg/kg. The rats were taken whole blood in 5 minutes before oral administrated and 15 min, 30 min, 45 min, 60 min, 90 min, 120 min, 180 min, 240 min, 300 min, 360 min, 480 min after oral administrated. Serum is separated from these blood samples.
# Serum Samples are extracted accurately 0.2 ml into centrifuge tubes separately; then 40 μL cold trichloroacetic acid solution which concentration is ten percent is added into centrifuge tubes separately. The samples are whorled 3 minutes; then centrifuged 12000 r/min for 10 minutes, 120 μl the up layer solution are extracted from centrifuge tubes and put into sample bottles separately. All the samples are detected by HPLC.
# Apparatus: Angilent 1100 HPLC (American Agilent Co.), include G1312A dual pump G1313A Auto-Sampler.
# Chromatographic column: discover ODS column (250 mm×6 mm, 5 μm);
# The mobile phase: Acetonitrile—0.1% H3PO4 water (13:87 v/v)
# Velocity of flow: 1.0 ml/min
# Detection Wavelength: 254 nm.
# Column temperature: 30° C.
# STZ rats = test: Efficacy in STZ model (plasma glucose, insulin, lipids, glucose clamp); type: in vivo, wistar rats; details: for Glucose infusion rate: glucose clamp; for FFA / GLU / INS / TG: high fat chow
# Method: Rosiglitazone Hydrochloride tablets were purchased from Zhejiang wanma pharmaceutical Co., Ltd. Mangiferin and mangiferin calcium salts were suspended with 3% sodium carboxymethyl cellulose.
# Normal female wistar rats (SPF, 3 months age, 180-200 g) were purchased from Hainan provincial peoples hospital experimental Animal Center. The animals were kept in a room temperature (25˜28° C.) with free access of food and water. A light-dark cycle (6 a.m and 6 p.m) was strictly enforced. High fat chow is composed of 55% basic chow, 2% protein, 16% fat, 27% white sugar.
# Model: After the rats were fasted for 12 hours, the rats are injected 30-35 mg/kg streptozotocin (STZ) solution once by tail vein. STZ solution is prepared to 2% concentration with […], pH 4.4 citrate-sodium citrate buffer before use. The model rats were weighed, taked out tail vein blood, tested blood glucose when the Model is done after 14 days after fasting for 12 hours, then injected 20% glucose solution ([…]) by intraperitoneal, determined blood glucose in 0.5 h, 1 h, 2 h. The rats whose glucose tolerance is abnormal were brought into experiments. Normal wistar rats were fed normal chow, model rats were fed high fat chow.
# Experimental group:normal wistar rats group (n=10); after Diabetes model is succeed, the rats were randomly divided into 7 groups: Diabetes model group (n=10); mangiferin groups (20, 40, 80 mg/kg, each 10 rats); mangiferin calcium groups (10, 20, 40 mg/kg, each 10 rats); Rosiglitazone Hydrochloride group [3 mg/kg, n=10]. Test samples or vehicle control was given orally for 8 weeks. Diabetes model group and normal group were given vehicle.
# Determination of insulin sensitivity (Glucose infusion rate): Using glucose clamp technique, in accordance with Konglingdong'method ? KONG Ling-dong, ZHU Liang-zheng, SONG Ju-min, etc al. Intervention Effects of Tiaozhi Jiangtang Tablet on Insulin Resistance in Rats with Diabetes Mellitus Type 2.
# Determination of plasma glucose and lipid: Rats were taken whole blood after killed, then serum was separated, determined plasma glucose (GLU), insulin (INS), triglycerides (TG) and free fatty acids (FFA).
# GLU and TG levels were determined using GF-D800 semi-auto chemist which was purchased from Shandong Gaomi Caihong Analytical Instrument Co., Ltd. Free fatty acids were determined using copper colorimetric determination. The kits for Determination of free fatty acids were purchased from Nanjing Jiancheng Bioengineering Institute. Insulin: radioimmunoassay (RIA), γ counter counts. insulin RIA Kit was purchased from Shandong Weifang City three-dimensional (3V) Biological company.
# Statistics: The results have been calculated as mean±SD ( x±SD) and compareisons of the data have been done by t-test.
# [3] = Stability of mangiferin calcium by preparation route; type: physicochemical; details: mangiferin calcium made by reacting mangiferin with calcium hydroxide; changes much in 2 hours
# Method: 3, The water solution of mangiferin calcium which mangiferin reacted with calcium hydroxide is unstable, it changes much in 2 hours. The reaction of mangiferin with other alkaline calcium like calcium bicarbonate or calcium acetate is difficult because they are alkalescent. The productivity is very low.
# 5, Mangiferin monosodium (or monopotassium) is come into being first; then mangiferin monosodium (or monopotassium) reacts with water-solubility calcium salt, and mangiferin calcium is come into being. The mangiferin calcium which is obtained by this method is stability, and the productivity is high.
# GK rats = test: Efficacy in GK model (plasma glucose, insulin, lipids); type: in vivo, Goto-Kakizaki rats (GK)
# Method: Rosiglitazone Hydrochloride tablets were purchased from Zhejiang wanma pharmaceutical Co., Ltd. Mangiferin and mangiferin calcium were suspended with 3% sodium carboxymethyl cellulose before use.
# Goto-Kakizaki rats (GK) (16 weeks age, ♀ ♂) were purchased from Shanghai SLAC laboratory animal Co., Ltd. The animals were kept in IVC cages with temperature (22° C.). There are two rats in each cage.
# Experimental group: GK rats group (n=10); mangiferin groups (20, 40, 80 mg/kg, each 10 rats); mangiferin calcium groups (10, 20, 40 mg/kg, each 10 rats); Rosiglitazone Hydrochloride group [3 mg/kg, n=10]. Test samples or vehicle control was given orally for 30 days. GK rats group were given vehicle.
# The blood specimens were taken by abdominal aorta at the end of the test. Plasma glucose (GLU), insulin (INS), triglycerides (TG), total cholesterol (TC), high density lipoprotein (HDL), low density lipoprotein (LDL) were determined
# GLU, TC, TG, HDL and LDL levels were determined using GF-D800 semi-auto chemist which was purchased from Shandong Gaomi Caihong Analytical Instrument Co., Ltd. Insulin: radioimmunoassay (RIA), γ counter counts. insulin RIA Kit was purchased from Shandong Weifang City three-dimensional (3V) Biological company.
# Statistics: The results have been calculated as mean±SD ( x±SD) and comparisons of the data have been done by t-test.
structure (smiles),measurement,setting,value
"O=c1c2cc(O)c(O)cc2oc2cc([O-])c([C@@H]3O[C@H](CO)[C@@H](O)[C@H](O)[C@H]3O)c(O)c12.O=c1c2cc([O-])c(O)cc2oc2cc(O)c([C@@H]3O[C@H](CO)[C@@H](O)[C@H](O)[C@H]3O)c(O)c12.[Ca+2] [Mangiferin calcium, mangiferin calcium]",dissolves in 30 minutes,[1]; 50 mg powder in 50 ml distilled water,can dissolve
same,dissolves in 30 minutes,[1]; 100 mg powder in 50 ml distilled water,can not dissolve completely
same,water solubility,"[1]; distilled water, shaken 30 second every 5 minutes, 30 minutes",more than 1 mg/ml
same,bioavailability,[2]; compared with mangiferin,better than mangiferin
same,Cmax,[2]; serum,48300 ± 600 ng/mL
same,T1/2β,[2]; serum,1.02 ± 0.128 h
same,"improvement of GLU, TG, FFA, INS, Glucose infusion rate in diabetic rats",STZ rats; 10 mg/kg orally for 8 weeks,significantly improves
same,Glucose infusion rate,STZ rats; 10 mg/kg orally for 8 weeks,17.56 ± 3.45 mg/kg · min
same,Glucose infusion rate,STZ rats; 20 mg/kg orally for 8 weeks,24.37 ± 3.75 mg/kg · min
same,Glucose infusion rate,STZ rats; 40 mg/kg orally for 8 weeks,26.36 ± 3.58 mg/kg · min
same,FFA,STZ rats; 10 mg/kg orally for 8 weeks,1.54 ± 0.23 µmol/L
same,GLU,STZ rats; 10 mg/kg orally for 8 weeks,8.01 ± 0.32 mmol/L
same,INS,STZ rats; 10 mg/kg orally for 8 weeks,27.63 ± 3.46 μ IU/ml
same,TG,STZ rats; 10 mg/kg orally for 8 weeks,2.49 ± 0.18 mmol/L
same,FFA,STZ rats; 20 mg/kg orally for 8 weeks,1.28 ± 0.14 µmol/L
same,GLU,STZ rats; 20 mg/kg orally for 8 weeks,7.31 ± 0.22 mmol/L
same,INS,STZ rats; 20 mg/kg orally for 8 weeks,23.57 ± 3.68 μ IU/ml
same,TG,STZ rats; 20 mg/kg orally for 8 weeks,1.93 ± 0.36 mmol/L
same,FFA,STZ rats; 40 mg/kg orally for 8 weeks,1.13 ± 0.18 µmol/L
same,GLU,STZ rats; 40 mg/kg orally for 8 weeks,6.91 ± 2.02 mmol/L
same,INS,STZ rats; 40 mg/kg orally for 8 weeks,20.53 ± 4.42 μ IU/ml
same,TG,STZ rats; 40 mg/kg orally for 8 weeks,1.49 ± 0.28 mmol/L
same,stability of water solution,[3],unstable
same,GLU,GK rats; 10 mg/kg orally for 30 days,24.06 ± 1.57 mmol/L
same,HDL,GK rats; 10 mg/kg orally for 30 days,0.81 ± 0.07 mmol/L
same,INS,GK rats; 10 mg/kg orally for 30 days,27.48 ± 8.70 μ IU/ml
same,LDL,GK rats; 10 mg/kg orally for 30 days,1.26 ± 0.18 mmol/L
same,TC,GK rats; 10 mg/kg orally for 30 days,2.43 ± 0.21 mmol/L
same,TG,GK rats; 10 mg/kg orally for 30 days,1.79 ± 0.22 mmol/L
same,"improvement of TC, HDL and LDL in diabetic GK rats",GK rats; 10 mg/kg orally for 30 days,significantly improves
same,GLU,GK rats; 20 mg/kg orally for 30 days,23.34 ± 1.67 mmol/L
same,HDL,GK rats; 20 mg/kg orally for 30 days,0.80 ± 0.10 mmol/L
same,INS,GK rats; 20 mg/kg orally for 30 days,20.45 ± 6.36 μ IU/ml
same,LDL,GK rats; 20 mg/kg orally for 30 days,1.31 ± 0.10 mmol/L
same,TC,GK rats; 20 mg/kg orally for 30 days,2.47 ± 0.08 mmol/L
same,TG,GK rats; 20 mg/kg orally for 30 days,1.60 ± 0.41 mmol/L
same,"improvement of GLU, TC, TG, HDL and LDL and INS in diabetic GK rats",GK rats; 20 mg/kg orally for 30 days,significantly improves
same,GLU,GK rats; 40 mg/kg orally for 30 days,23.17 ± 1.58 mmol/L
same,HDL,GK rats; 40 mg/kg orally for 30 days,0.80 ± 0.09 mmol/L
same,INS,GK rats; 40 mg/kg orally for 30 days,16.79 ± 5.37 μ IU/ml
same,LDL,GK rats; 40 mg/kg orally for 30 days,1.37 ± 0.11 mmol/L
same,TC,GK rats; 40 mg/kg orally for 30 days,2.49 ± 0.07 mmol/L
same,TG,GK rats; 40 mg/kg orally for 30 days,1.57 ± 0.39 mmol/L
